Test: Inhibition of hedgehog signaling pathway in mouse Shh Light2 cells assessed as inhibition of sonic hedgehog-induced GLI1-mediated transcriptional activity measured after 30 hrs by dual luciferase reporter gene assay
Type: cell-based
Conditions: Shh Light2, 30 h

Compound	IC50 [nM]
C[C@H]1CC[C@@H]2[C@@H](C)[C@H]3[C@H](C[C@H]4[C@@H]5CC=C6C[C@@H](O)CC[C@]6(C)[C@H]5CC[C@]34C)N2C1	> 25000
CC(=O)O[C@@H]1C[C@H]2[C@@H](CC=C3C[C@@H](O[C@@H]4O[C@H](CO)[C@@H](O)[C@H](O)[C@H]4O)CC[C@@]32C)[C@@H]2CC[C@H]([C@H](C)C3=NC[C@H](C)CC3=O)[C@@]12C	1110
Cc1c([C@H](C)[C@H]2CC[C@H](C)CN2)ccc2c1C[C@H]1[C@H]2CC=C2C[C@@H](O)CC[C@@]21C	630
C/C=C(/C)C(=O)O[C@H]1CC[C@@]2(C)[C@@H]3CC[C@H]4[C@]5(O)[C@@H](O)[C@H](O)[C@H]6[C@@H](CN7C[C@@H](C)CC[C@H]7[C@@]6(C)O)[C@@H]5C[C@@]42O[C@@]13O	> 25000
CC1=C2C[C@H]3[C@@H](CC=C4C[C@@H](O)CC[C@@]43C)[C@@H]2CC[C@]12O[C@@H]1C[C@H](C)CN[C@H]1[C@H]2C [CYCLOPAMINE]	74.1

The remaining lines, values ahead:

IC50 [nM]	Compound
> 25000	CC(=O)O[C@H]1C[C@H]2[C@@H]3CC=C4C[C@@H](O[C@@H]5O[C@H](CO)[C@@H](O)[C@H](O)[C@H]5O)CC[C@]4(C)[C@H]3CC[C@]2(C)[C@H]1[C@H](C)C1=NC[C@H](C)CC1
3110	CC(=O)O[C@@H]1C[C@H]2[C@@H](CC=C3C[C@@H](O)CC[C@@]32C)[C@@H]2CC[C@H]([C@@](C)(O)C3=NC[C@H](C)CC3)[C@@]12C
2780	CC(=O)O[C@@H]1C[C@H]2[C@@H](CC=C3C[C@@H](O[C@@H]4O[C@H](CO)[C@@H](O)[C@H](O)[C@H]4O)CC[C@@]32C)[C@@H]2CC[C@H]([C@@](C)(O)C3=NC[C@H](C)CC3)[C@@]12C

Reference: ChEMBL document CHEMBL3861982, “Three new alkaloids from Veratrum grandiflorum Loes with inhibition activities on Hedgehog pathway” (Bioorg Med Chem Lett, 2016)
